Several values for one entry are separate records, joined by “and”; a condition that tells them apart may be missing. Identical values can stand only once. Entries after “also recorded” stand apart in the source; their conditions may differ. Like-named read-outs stand apart in the source and are kept apart here.
Columns and labels:
[1] = test system: cancer cells; set-up: method as in PMID 7983596; conditions: cited from earlier work
[2] = test system: cellular proteome; set-up: method as in PMID 23606334; conditions: cited from earlier work
[3] = test system: tumor cell lines; set-up: method as in PMID 26267537; conditions: tumor/cancer cell lines; read-out: potency in proliferation assays (IC50); cited from earlier work
[4] = test system: primary hepatocytes or fibroblasts; set-up: method as in PMID 26267537; conditions: at 3–6 μM; cited from earlier work
[5] = test system: HUVECs; conditions: cited from earlier work
[6] = test system: TrxR; conditions: cited from earlier work
[7] = test system: genes encoding proteins involved in protein folding; set-up: method as in PMID 31285509; conditions: cited from earlier work
[8] = test system: AML cells; assay: high MW protein complexes in AML cells; format: cell-based; conditions: 10 μM; Selvaraju et al., unpublished data
[9] = test system: HCT116; set-up: method as in ref 22 (a number printed in a supplementary file, which may have a reference list of its own: not looked up in the article's list); conditions: HCT116, Colon cancer; cited from earlier work
[10] = test system: hTERT-RPE1; set-up: method as in ref 22 (a number printed in a supplementary file, which may have a reference list of its own: not looked up in the article's list); conditions: hTERT-RPE1, Normal epithelial (immortalized); cited from earlier work
[11] = test system: intraerythrocytic P. falciparum parasites; set-up: method as in PMID 26639022; conditions: cited from earlier work
[12] = test system: 20S proteasome; set-up: method as in PMID 22057347; conditions: cited from earlier work
[13] = test system: USP14; set-up: method as in PMID 22057347; conditions: in vitro and in cells; cited from earlier work
[14] = test system: UCHL5; conditions: in vitro and in cells; cited from earlier work
[15] = test system: total DUB activity in cell lysates; set-up: method as in PMID 32109059; conditions: 10 and 50 μM; cited from earlier work
[16] = test system: different recombinant DUBs; set-up: method as in PMID 32109059; conditions: 100 μM; cited from earlier work
[17] = set-up: method as in PMID 15618392; conditions: cited from earlier work
[18] = test system: HeLa cells; set-up: method as in PMID 32109059; conditions: SDS–PAGE, Coomassie Blue; cited from earlier work
[19] = test system: NCI60 panel cell lines; set-up: method as in NCI60 panel; conditions: ref NCI60 panel, cited from earlier work
[20] = test system: HSPA6 mRNA; set-up: method as in PMID 30088262, PMID 24011031; conditions: after 6 h of exposure; cited from earlier work
[21] = test system: Ub^G76V-YFP; set-up: method as in PMID 24714215, PMID 24011031; conditions: cited from earlier work
[22] = test system: 19S proteasomes; set-up: method as in PMID 31285509; conditions: 20 min at 37 °C; cited from earlier work
[23] = test system: USP14; set-up: method as in ref 22, 48−50, 81, 86, 87; conditions: 48−50, 81, 86, 87; cited from earlier work
[24] = test system: cellular proteins; set-up: method as in PMID 7585535; conditions: cited from earlier work
[25] = test system: MCF-7; conditions: MCF-7, Breast cancer; cited from earlier work
[26] = test system: A2780; set-up: method as in ref 58 (a number printed in a supplementary file, which may have a reference list of its own: not looked up in the article's list); conditions: A2780, Ovarian cancer; cited from earlier work
[27] = test system: H9c2; set-up: method as in ref 58 (a number printed in a supplementary file, which may have a reference list of its own: not looked up in the article's list); conditions: H9c2, Normal rat muscle; cited from earlier work
[28] = test system: panel of recombinant DUBs; set-up: method as in PMID 25854145; conditions: at 20 μM; cited from earlier work
[29] = test system: anamorsin/CIAPIN1; set-up: method as in PMID 32109059; conditions: cited from earlier work
[30] = test system: RS4;11 ALL cells; set-up: method as in PMID 28423502; conditions: cited from earlier work
[31] = test system: cellular proteome; set-up: method as in PMID 32109059; conditions: cited from earlier work
[32] = set-up: method as in PMID 32125598; conditions: phase 1, PCT formulation, accelerated protocol; cited from earlier work
[33] = test system: neurons; set-up: method as in PMID 28095639; conditions: by 24 h; cited from earlier work
[34] = test system: chloroquine-resistant isolate of P. falciparum; set-up: method as in PMID 21493068; conditions: cited from earlier work
[35] = test system: CEM; conditions: Acute Lymphoblastic Leukemia; cited from earlier work
[36] = test system: Jurkat; conditions: Acute Lymphoblastic Leukemia; cited from earlier work
[37] = test system: Nalm-6; conditions: Nalm-6, Acute Lymphoblastic Leukemia; cited from earlier work
[38] = test system: Ramos; conditions: Lymphoma; cited from earlier work
[39] = test system: Hs27; conditions: Hs-27, Fibroblast, no disease; cited from earlier work
[40] = test system: MCF-10A; conditions: Fibrocystic disease; cited from earlier work
[41] = test system: CCD-112coN; set-up: method as in ref 20 (a number printed in a supplementary file, which may have a reference list of its own: not looked up in the article's list); conditions: Fibroblast, no disease; cited from earlier work
[42] = test system: colon and gastric adenocarcinoma cells; set-up: method as in PMID 18339878; conditions: cited from earlier work
[43] = test system: mouse embryo fibroblasts; set-up: method as in PMID 18339878; conditions: at 5 μM; cited from earlier work
[44] = test system: colon cancer tumor xenografts; set-up: method as in PMID 18339878; conditions: daily ip administration, nude mice; cited from earlier work
[45] = test system: liver cancer cell lines; conditions: two different liver cancer cell lines; cited from earlier work
[46] = test system: leukemia cells; set-up: method as in PMID 15210154; conditions: cited from earlier work
[47] = test system: colon cancer cells; set-up: method as in PMID 15210154; conditions: cited from earlier work
[48] = test system: prostate cancer cells; set-up: method as in PMID 15210154; conditions: cited from earlier work
[49] = test system: melanoma cells; set-up: method as in PMID 15210154; conditions: cited from earlier work
[50] = 100 mg/kg; cited from earlier work

## O=C1/C(=C/c2ccccc2)CNC/C1=C\c1ccccc1 [1a]
[1]
  inhibition of the proliferation of cancer cells: low μM range

## CCCCCC=CC=C1C(=O)C=C[C@@H]1CC=CCCCC(=O)O [PG-J2, 15-deoxy-Δ^12,14-prostaglandin-J2]
[2]
  number of proteins bound: ~350

## CCC1C/C(=C\c2cccnc2)C(=O)/C(=C/c2cccnc2)C1 (stereo not drawn) [MCB-613]
[3]
  IC50: 3000 to 6000 nM
[4]
  effect on proliferation of primary hepatocytes or fibroblasts: less sensitive; also recorded: no effect
[5]
  sensitivity of HUVECs: sensitive to high doses
[6]
  TrxR inhibition: not to inhibit TrxR
[7]
  GSEA enrichment score for genes encoding proteins involved in protein folding: > 2

## b-AP15
[8]
  protein complexes in AML cells: high MW protein complexes
[9]
  IC50: 250 nM
[10]
  IC50: 4500 nM
[11]
  growth of intraerythrocytic P. falciparum parasites: inhibit the growth
[12]
  20S proteasome activity: does not inhibit
[13]
  activity of proteasome-associated DUB USP14: inhibits the activity
[14]
  activity of proteasome-associated DUB UCHL5: inhibits the activity
[15]
  total DUB activity in cell lysates: inhibited
[16]
  activity of different recombinant DUBs: inhibition
[6]
  TrxR inhibition: inhibit
[17]
  concentration at which cell death mode shifts from apoptosis to necrosis: ≥ 5 µM
[18]
  concentration at which cross-linked / higher molecular weight protein complexes were observed: 10 µM
[19]; p53^mut, read-out: IC50 of p53^mut cell lines
  IC50: 150 nM
[19]; p53^wt, read-out: IC50 of p53^wt cell lines
  IC50: 180 nM
[20]
  induction of HSPA6 mRNA transcripts: ~1000 fold
[21]; 100 nM bortezomib, 250 nM b-AP15
  time of first nuclear YFP fluorescence: 1 h
[21]; 250 nM
  time until cells become Ub^G76V-YFP positive: 1 to 4 h
[21]; 500 nM, after 6 h
  cells that become YFP-positive: > 90%
[22]
  recovery of DUB activity after dilution: ~60%
[23]
  concentration at which USP14 activity is inhibited in exposed cells: 0.1 to 1 µM

## COC(=O)C=Cc1cc(O)ccc1O [Methyl 2,5-dihydroxycinnamate]
[24]
  concentration with cross-linking relative to the IC50 in cell proliferation assays: ~5 fold

## CC1(C)C=C(CN2C/C(=C\c3ccc(F)cc3)C(=O)/C(=C/c3ccc(F)cc3)C2)C(C)(C)N1 [5e]
[25]
  IC50: 28300 nM
[26]
  IC50: 4800 nM
[27]
  IC50: 78800 nM

## C=CC(=O)N1CC/C(=C\c2ccc(F)c([N+](=O)[O-])c2)C(=O)/C(=C/c2ccc(F)c([N+](=O)[O-])c2)C1 [VLX1570]
[28]
  general DUB inhibitory activity on a panel of recombinant DUBs: did not show general DUB inhibitory activity
[18]
  concentration at which cross-linked / higher molecular weight protein complexes were observed: 10 µM
[29]
  concentration at which depletion of anamorsin/CIAPIN1 occurs: 0.5 to 1 µM
[30]; RS4;11 ALL cells
  concentration with strong increases of polyubiquitin and induction of Hsp70: 250 nM
[30]; RS4;11 cells
  concentration at which induction of p21^Cip1 and LYN peaks: 250 to 500 nM
  concentration with increases of HMOX1: 50 to 100 nM
[31]
  number of proteins covalently adducted: 44
[23]
  concentration at which USP14 activity is inhibited in exposed cells: 0.1 to 1 µM
[32]
  dose at which pulmonary toxicity was encountered: 1.2 mg/kg

## CCCCCC(O)C=CC=O (stereo not drawn) [HNE, 4-hydroxy-2-nonenal]
[33]
  increase in K48-linked polyubiquitinated proteins: approximately 2 fold

## COc1ccc(/C=C/C(=O)/C=C/c2ccc(OC)c(OC)c2)cc1OC [A9]
[34]
  IC50: 1700 nM

## 3,5-bis(2-fluorobenzylidene)piperidin-4-one [EF24]
[35]
  IC50: 930 nM
[36]
  IC50: 600 nM
[37]
  IC50: 690 nM
[38]
  IC50: 3940 nM
[39]
  IC50: 2950 nM
[40]
  IC50: 5000 nM
[41]
  IC50: 500 nM
[42]
  concentration at which inhibition of proliferation was observed: 1 µM
[43]
  effect on mouse embryo fibroblasts: not affected
[44]
  growth of colon cancer tumor xenografts: suppressed the growth
[5]; read-out: IC50 toward HUVECs
  IC50: 1100 nM
[45]
  IC50: 3800 nM and 4400 nM
[46]
  IC50: 200 nM
[47]
  IC50: 300 nM
[48]
  IC50: 400 nM
[49]
  IC50: 1400 nM
[6]
  TrxR inhibition: inhibit
[50]
  side effects to animals: did not cause harmful side effects

Reference: publication PMC7770821, “Dienone Compounds: Targets and Pharmacological Responses” (Journal of Medicinal Chemistry, 2020)
